In patent publication US11058661B2, “Compositions and methods for lowering triglycerides in a subject on concomitant statin therapy and having hsCRP levels of at least about 2 mg/L” (priority 2018, dated 2021):

What was measured:
[1] = tested on: statin-treated patients with fasting TG ≥200 and <500 mg/dL; test: ANCHOR study, entire population: fasting TG; assay type: in vivo, human; details: 4 g/day
Experimental: A multi-center, placebo-controlled, randomized, double-blind, 12-week study is performed to evaluate the efficacy and safety of >96% E-EPA in patients with fasting triglyceride levels ≥200 mg/dl and <500 mg/dl despite statin therapy (the mean of two qualifying entry values needs to be ≥185 mg/dl and at least one of the values needs to be ≥200 mg/dl). The primary objective of the study is to determine the efficacy of >96% E-EPA 2 g daily and 4 g daily, compared to placebo, in lowering fasting TG levels in patients with high risk for cardiovascular disease and with fasting TG levels ≥200 mg/dL and <500 mg/dL, despite treatment to LDL-C goal on statin therapy.
The population for this study is men and women >18 years of age with a body mass index ≤45 kg/m^2 with fasting TG levels greater than or equal to 200 mg/dl and less than 500 mg/dl and on a stable does of statin therapy (with or without ezetimibe). The statin must be atorvastatin, rosuvastatin or simvastatin. The dose of statin must be stable for ≥4 weeks prior to the LDL-C/TG baseline qualifying measurement for randomization. The statin dose will be optimal such that the patients are at their LDL-C goal at the LDL-C/TG baseline qualifying measurements. The same statin at the same dose will be continued until the study ends. […]

[2] = tested on: patients with baseline hsCRP ≥2.0 mg/L (safety population); test: ANCHOR post-hoc subgroup: treatment-emergent adverse events; assay type: in vivo, human
Source text: The evaluation of safety included monitoring of treatment-emergent adverse events (TEAEs), defined as any AEs that began after the first dose of study medication or that worsened in severity during the double-blind treatment period. TEAEs reported herein included total TEAEs and those occurring in 3% […] of patients in any treatment group of the overall ANCHOR study population (i.e., nausea, diarrhea, nasopharyngitis, and arthralgia). The median difference in percent change from baseline between 4 g per day EPA-E and placebo groups for the primary efficacy variable and additional assessments were estimated with the Hodges-Lehmann method (P values from the Wilcoxon rank-sum test for treatment comparisons) where departures from normality were observed; for normally distributed parameters, an ANCOVA model was used with least square means (LS) and standard error (SE). Missing values were imputed using the last-observation-carried-forward method. For all post hoc analyses, the alpha level for statistical significance was 0.05. Safety analyses were based on the safety population (all randomized patients who received at least one dose of the study drug).

**Q.** With `CC/C=C\C/C=C\C/C=C\C/C=C\C/C=C\CCCC(=O)OCC` [Icosapent Ethyl, ethyl eicosapentaenoate] as the compound, how does the “reduction of median TG from baseline compared with placebo” value [1] read?
**A.** 21.5%

**Q.** And the patients with arthralgia ([2]; 4 g per day)?
**A.** 2.3%

**Q.** What about the patients with diarrhea ([2]; 4 g per day) of the same compound?
**A.** 3.8%

**Q.** And the patients with nasopharyngitis ([2]; 4 g per day)?
**A.** 0.8%

**Q.** And the patients with nausea ([2]; 4 g per day)?
**A.** 2.3%

**Q.** And the “patients with TEAEs (irrespective of causality)” value ([2]; 4 g per day, 60 of 131)?
**A.** 45.8%

**Q.** What about the “patients discontinued due to an AE” value ([2]; 4 g per day, subarachnoid hemorrhage, ruptured cerebral aneurysm, brain edema, not considered related) of the same compound?
**A.** One

**Q.** And the “Patients With TEAEs: Any TEAE” value ([2]; 4 g/day, n = 131)?
**A.** 60 (45.8) n (%)

**Q.** And the “Patients With TEAEs: Arthralgia” value ([2]; 4 g/day, n = 131)?
**A.** 3 (2.3) n (%)

**Q.** And the “Patients With TEAEs: Diarrhea” value ([2]; 4 g/day, n = 131)?
**A.** 5 (3.8) n (%)

**Q.** What about the “Patients With TEAEs: Nasopharyngitis” value ([2]; 4 g/day, n = 131) of the same compound?
**A.** 1 (0.8) n (%)

**Q.** What about the “Patients With TEAEs: Nausea” value ([2]; 4 g/day, n = 131) of the same compound?
**A.** 3 (2.3) n (%)
